Data reported in the supplement of paper PMC5908809.

Legend:
[1] = tested on: normal NK cells expanded with K562-aAPC; assay: drug sensitivity score (DSS) (DSS units); higher = more sensitive; extreme values may be limits of the assay; conditions: 72 h; IL-2 2.5 ng/mL
Protocol: (§1)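 Drug sensitivity and resistance testing on K562-aAPC-expanded normal NK cells: 5 concentrations (10-fold steps over a 10,000-fold range), 72 h at 37 °C, viability by CellTiter-Glo normalised to DMSO and benzethonium chloride controls; DSS from the fitted curve.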

[2] = tested on: YT (IL-2 2.5 ng/mL); assay: percent inhibition of viability; higher = more inhibition; conditions: 72 h
[3] = tested on: KHYG-1 (IL-2 2.5 ng/mL); assay: as above; conditions: 72 h
[4] = tested on: normal primary NK cells, pool 2 (3 donors) (IL-2 2.5 ng/mL); assay: as above; conditions: 72 h
[5] = tested on: NK-YS (IL-2 2.5 ng/mL); assay: as above; conditions: 72 h
[6] = tested on: normal primary NK cells, pool 1 (3 donors), resting (IL-2 0 ng/mL); assay: as above; conditions: 72 h
[7] = tested on: normal primary NK cells, pool 3 (3 donors) (IL-2 2.5 ng/mL); assay: as above; conditions: 72 h
[8] = tested on: KAI3 (IL-2 2.5 ng/mL); assay: as above; conditions: 72 h
[9] = tested on: NK-92 (IL-2 2.5 ng/mL); assay: as above; conditions: 72 h
[10] = tested on: DERL-7 (IL-2 2.5 ng/mL); assay: as above; conditions: 72 h
[11] = tested on: NKL (IL-2 2.5 ng/mL); assay: as above; conditions: 72 h
[12] = tested on: normal primary NK cells, pool 1 (3 donors) (IL-2 2.5 ng/mL); assay: as above; conditions: 72 h
[13] = tested on: IMC-1 (IL-2 20 ng/mL); assay: as above; conditions: 72 h
[14] = tested on: SNK-6 (IL-2 2.5 ng/mL); assay: as above; conditions: 72 h
[15] = tested on: YT (IL-2 2.5 ng/mL); assay: drug sensitivity score (DSS) (DSS units); higher = more sensitive; extreme values may be limits of the assay; conditions: 72 h
[16] = tested on: KHYG-1 (IL-2 2.5 ng/mL); assay: as above; conditions: 72 h
[17] = tested on: normal primary NK cells, pool 2 (3 donors) (IL-2 2.5 ng/mL); assay: as above; conditions: 72 h
[18] = tested on: NK-YS (IL-2 2.5 ng/mL); assay: as above; conditions: 72 h
[19] = tested on: normal primary NK cells, pool 1 (3 donors), resting (IL-2 0 ng/mL); assay: as above; conditions: 72 h
[20] = tested on: normal primary NK cells, pool 3 (3 donors) (IL-2 2.5 ng/mL); assay: as above; conditions: 72 h
[21] = tested on: KAI3 (IL-2 2.5 ng/mL); assay: as above; conditions: 72 h
[22] = tested on: NK-92 (IL-2 2.5 ng/mL); assay: as above; conditions: 72 h
[23] = tested on: DERL-7 (IL-2 2.5 ng/mL); assay: as above; conditions: 72 h
[24] = tested on: NKL (IL-2 2.5 ng/mL); assay: as above; conditions: 72 h
[25] = tested on: normal primary NK cells, pool 1 (3 donors) (IL-2 2.5 ng/mL); assay: as above; conditions: 72 h
[26] = tested on: IMC-1 (IL-2 20 ng/mL); assay: as above; conditions: 72 h
[27] = tested on: SNK-6 (IL-2 2.5 ng/mL); assay: as above; conditions: 72 h
[28] = tested on: normal NK cells expanded with K562-aAPC; assay: percent inhibition of viability; higher = more inhibition; conditions: 72 h, IL-2 2.5 ng/mL
Protocol: as §1

Cc1[nH]c2ccccc2c1CCNCc1ccc(/C=C/C(=O)NO)cc1 [Panobinostat] (max concentration tested 1000 nM)
Conditions | drug sensitivity score
[1] | 22.6
[15] | 20.1
[16] | 21.6
[17] | 24.6
[18] | 21
[19] | 24.6
[20] | 22.3
[21] | 26
[22] | 22.5
[23] | 23
[24] | 25.2
[25] | 22.3
[26] | 18.3
[27] | 22.1

percent inhibition of viability [%]
Conditions | 0.1 nM | 1 nM | 10 nM | 100 nM | 1000 nM
[2] | 0.21 | -1.12 | 12.8 | 101 | 98.4
[3] | -7.12 | -8.38 | 22.6 | 101 | 101
[4] | -7.26 | -4.93 | 64.8 | 94.5 | 94.9
[5] | -8.83 | -9.94 | 19.8 | 97.1 | 98.8
[6] | -10.7 | 2.83 | 67 | 89.2 | 90.8
[7] | -7.01 | -2.67 | 31.6 | 97.8 | 98.5
[8] | 4.1 | 14.2 | 61.8 | 101 | 101
[9] | -5.27 | -2.71 | 34 | 98.1 | 101
[10] | -11.8 | -4.71 | 36.5 | 100 | 100
[11] | -1.46 | 1.8 | 61.1 | 101 | 100
[12] | 0.27 | -4.7 | 33.9 | 97 | 97.5
[13] | -2.07 | -6.63 | 2.44 | 100 | 100
[14] | -14.8 | 4.53 | 31.4 | 98.9 | 99.6
[28] | 0.2 | 2.99 | 33.4 | 99.8 | 99.8

OC[C@H]1O[C@@H](n2cnc3c2N=CNC[C@H]3O)C[C@@H]1O [Pentostatin] (max concentration tested 10000 nM)
Conditions | drug sensitivity score
[1] | 0
[15] | 0
[16] | 0
[17] | 0
[18] | 0
[19] | 0
[20] | 0
[21] | 0
[22] | 0
[23] | 0
[24] | 0
[25] | 0
[26] | 0
[27] | 7.04

percent inhibition of viability [%]
Conditions | 1 nM | 10 nM | 100 nM | 1000 nM | 10000 nM
[2] | -4.24 | -0.68 | 3.36 | 4.3 | 8.72
[3] | -3.74 | -3.32 | 0.86 | 5.07 | 5.26
[4] | -9.21 | -12.2 | -5.88 | -13.3 | 1.05
[5] | -2.76 | -5.13 | -3.05 | 6.9 | 9.33
[6] | -7.98 | 1.6 | -13.1 | -28.3 | -7.61
[7] | -11.3 | -12.5 | -7.39 | -4.5 | 11.5
[8] | -10.6 | -16.4 | -2.67 | -7.59 | -0.36
[9] | -4 | -10.1 | -2.52 | -6.44 | 6.47
[10] | -9.03 | 2.32 | -10.5 | -5.23 | -4.31
[11] | -20.9 | -21.1 | -17.4 | -6.93 | -7.04
[12] | -3.11 | 3.31 | -8.32 | -5.87 | 1.1
[13] | 0.7 | -6.1 | 1.22 | 0.79 | 10.6
[14] | 4.13 | 3.89 | 8.33 | 34 | 20.9
[28] | 0.75 | -2.98 | 3.38 | 6.95 | 8.99
